This passage reports pEC50, EC50 and Ratio results from patent US20260317269A1, “Oxamate Derivatives and Prodrugs to Prevent CaOx Stone Formation” (Rutgers, The State University of New Jersey, priority 2023, published 2026).

This assay in a line: CaOx crystallization inhibition assay, remaining free oxalate in solution measured with EnzyChrom oxalate assay kit (Assay B). Type of assay: biochemical. The settings on record: for pEC50 / Ratio: from EC50 in the CaOx crystallization inhibition assay; for pEC50: HEPES pH 6.8, r.t., footnote c not given; for pEC50 / EC50: 72 h; for EC50: inhibition of CaOx crystallization, 10 mM HEPES buffer, pH 6.8, 150 mM NaCl, supersaturated CaOx, r.t., remaining oxalate at OD 595 nm; for Ratio: ratio to citrate (citrate = 1). The source says:
Calcium oxalate (CaOx) crystallization inhibition assays in HEPES buffer, pH 6.8 include Assay A and Assay B. Assay A: Fluorescence-based assay using Quin-2 to measure the concentration of free calcium in solution (Ex 340 nm/Em 495 nm) (FIG. 1). An example assay protocol is shown below.
Assay B: Spectrophotometric assay using EnzyChrom™ oxalate assay kit from Bioassay Systems (EOXA-100) to measure the concentration of free oxalate in solution at OD 595 nm.
For CaOx crystallization inhibition assay, equal volumes of 2 mM of CaCl2) was combined with […] of Na2Ox to generate […] supersaturated solutions of CaOx in 10 mM HEPES buffer, pH 6.8 containing 150 mM NaCl. The higher concentration of Ca^++ utilized in this assay was designed to mimic the typical calcium levels found in human urine. Following incubation with varying concentrations of inhibitors at r.t. for 72 h and subsequent centrifugation, the EnzyChrom™ oxalate assay kit (EOXA-100, BioAssay Systems) was employed to measure spectrophotometrically the remaining oxalate concentration in solution at 595 nm. This assay determined the EC50 for each inhibitor. This assay was used to determine the activity of about 50 oxamate derivatives synthesized. Separately, dose response curves can be obtained for calcium concentrations and inhibitors concentrations with supersaturated solution: 250 μM CaCl2+250 μM Na2C2O4 in 10 mM HEPES, pH 6.8+150 mM NaCl; Calcium concentration in supernatent after centrifuge was measured using Quin2 via a fluorescence assay (Ex 340 nm/Em 495 nm).
Table 1 lists the EC50's obtained using this assay for various oxamate derivatives, along with other structure features such as linker length and number of OMA units for SAR analysis.

Broadly, the pEC50 is the negative decadic logarithm of the EC50, by convention in mol/L. Read a low pEC50 as a high EC50. In general, EC50 refers to the concentration at which the effect is half-maximal. A high value points to lower potency in that assay. `O=C(O)CC(O)(CC(=O)O)C(=O)O` [Citrate, reference compound]: the pEC50 worked out at 3.18, the EC50 was 665 µM and the Ratio is given as 1.

With `O=C(O)C(=O)NCCCC[C@H](NC(=O)C(=O)O)C(=O)O` [Compound 9, L-Lysine N^α,N^ε-dioxalate], the pEC50 worked out at 4.20, the EC50 was 63.8 µM and the Ratio came to 10.

For the molecule `O=C(O)C(=O)NCCNC(=O)C(=O)O` [Compound 11b], the pEC50 is 3.89, the EC50 came to 127 µM and the Ratio amounted to 5.

With `O=C(O)C(=O)NCCCC[C@H](NC(=O)C(=O)O)C(=O)NCCCCCNC(=O)[C@H](CCCCNC(=O)C(=O)O)NC(=O)C(=O)O` [Compound 19e, N,N′-(1,5-pentylene)bis(L-Lysinamide) N^α, N^α′,N^ε,N^ε′-tetraoxalate], the pEC50 amounted to 5.44, a half-maximal response (EC50) required 3.6 µM and the Ratio was determined as 185.

As to `O=C(O)C(=O)NCCCC[C@H](NC(=O)C(=O)O)C(=O)NCCCCCCNC(=O)[C@H](CCCCNC(=O)C(=O)O)NC(=O)C(=O)O` [Compound 19f, N,N′-(1,6-hexylene)bis(L-Lysinamide) N^α, N^α′,N^ε,N^ε′-tetraoxalate], the pEC50 stood at 6.03, the EC50 stood at 0.925 µM and the Ratio is listed as 719.
